Tests used:
[1] = tested on: Beet Curly Top Virus (BCTV); assay: Evaluation of Beet Curly Top Virus on tomatoes (field trial, seedlings treated before transplantation); type: in vivo; details: tomato var Heinz 8504; seedlings sprayed with 4 gm ai/ha two days before transplant; rated approximately 8 weeks later; P = 0.065
Experimental: In the instant example, symptoms of infection with Beet Curly Top Virus (BCTV) on tomatoes were evaluated. Plants were either treated with a composition comprising 1-MCP or left untreated.
Tomato seedlings (var Heinz 8504) with 4 leaves (approximately 4 inches tall) in seedling trays were either i) sprayed with a treatment of 1-MCP (4 gm ai/ha) or ii) left untreated. Contacting the plants was achieved using a pressurized backpack spraying system containing 1-MCP and water. Two days later, the tomato seedlings were transplanted into the open field near Five Points, Calif. following normal commercial tomato production practices.
Throughout the growing season, normal field production practices were performed, including fertilization, watering, and pest control (e.g., insecticide, fungicide, and herbicide) applications uniformly to the entire trial area. Approximately eight (8) weeks later, when the tomatoes had grown to approximately 2 feet tall, an infestation of Beet Curly Top Virus (BCTV) was noted. Observations were taken on percentage of plants infected with BCTV in treated and untreated plots.

[2] = tested on: Tomato Yellow Leaf Curl Virus (TYLCV); assay: Evaluation of Tomato Yellow Leaf Curl Virus on tomatoes (field trial); type: in vivo, Tomato Yellow Leaf Curl Virus (Begomovirus Geminiviridae); details: tomato var Florida 47; seedlings treated with 50 ppm ai by watering can three days before transplant; rated approximately 9 weeks later; P = 0.081
Experimental: In the instant example, symptoms of infection with Tomato Yellow Leaf Curl Virus (TYLCV) on tomatoes were evaluated. Plants were either treated with a composition comprising 1-MCP or left untreated.
(§1) Tomato seedlings (var Florida 47) with approximately 4 leaves (approximately 4 inches tall) in seedling trays were either i) sprayed with 1-MCP (50 ppm ai) or ii) left untreated. Contacting the plants was achieved using a watering can containing 1-MCP and water. Three days later, the seedlings were transplanted into the open field near Myakka City, Fla. following normal commercial tomato production practices.
(§2) Throughout the growing season, normal field production practices were performed, including fertilization, watering, and pest control (e.g., insecticide, fungicide, and herbicide) applications uniformly to the entire trial area. Approximately 9 weeks later, when the tomatoes had grown to approximately 3 feet tall, an infestation of Tomato Yellow Leaf Curl Virus was observed. In each plot of plants that were treated with 1-MCP, and the corresponding plot of plants that were untreated, counts were made of the number of plants showing symptoms of infection by TYLCV out of the total of 54 plants per plot.

[3] = tested on: Target Spot (Corynespora cassiicola); assay: Evaluation of Target Spot infection on tomatoes (field trial); type: in vivo; details: tomato var HM 1823; seedlings treated with 50 ppm ai by watering can three days before transplant; rated approximately 9 weeks later; P = 0.003
Experimental: In the instant example, symptoms of Target Spot […] infection (Corynespora cassiicola) on tomatoes were evaluated. Plants were either treated with a composition comprising 1-MCP or left untreated.
as §1, with “HM 1823)” for “Florida 47)”
as §2, with “Target Spot” for “Tomato Yellow Leaf Curl Virus”, “Target Spot” for “TYLCV”

[4] = tested on: Bacterial Spot (Xanthomonas euvesicatoria and Xanthomonas perforans, Xanthomonas vesicatoria, and Xanthomonas gardneri); assay: Evaluation of Bacterial Spot on tomatoes (field trial); type: in vivo; details: tomato var Charger; seedlings sprayed with 1-40 g ai/ha two days before transplant; rated approximately 3 weeks later; p = 0.04
Experimental: In the instant example, symptoms of Bacterial Spot bacterial infection (Xanthomonas euvesicatoria and Xanthomonas perforans=[Xanthomonas axonopodis (syn. campestris) pv. vesicatoria], Xanthomonas vesicatoria, and Xanthomonas gardneri) on tomatoes were evaluated. Plants were either treated with a composition comprising 1-MCP or left untreated.
(§3) Tomato Seedlings (var Charger) with approximately 4 leaves (approximately 4-5 inches tall) in seedling trays were either i) sprayed with 1-MCP (1-40 g ai/ha) or ii) left untreated. Contacting the plants was achieved using pressurized backpack sprayer. Two days later, the seedlings were transplanted into the open field near Thonotosassa, Fla. following normal commercial tomato production practices.
as §2, with “3” for “9”, “1½” for “3”, “tall” for “tall,”, “Bacterial Spot” for “Tomato Yellow Leaf Curl Virus”, “disease severity assessments” for “counts”, “made.” for “made of the number of plants showing symptoms of infection by TYLCV out of the total of 54 plants per plot.”

[5] = tested on: Early Blight (Alternaria tomatophila); assay: Evaluation of Early Blight on tomatoes (field trial); type: in vivo
Experimental: In the instant example, symptoms of fungal infection with Early Blight (Alternaria tomatophila) on tomatoes were evaluated. Plants were either treated with a composition comprising 1-MCP or left untreated.
as §3, with “seedlings” for “Seedlings”, “(1-10” for “(1-40”
(§4) Throughout the growing season, normal field production practices were performed, including fertilization, watering, and pest control (e.g., insecticide, fungicide, and herbicide) applications uniformly to the entire trial area. Beginning approximately 3 weeks later, and continuing approximately 7 weeks later and approximately 11 weeks later, the percent disease severity ratings were made in each plot of plants that were treated with 1-MCP and the corresponding plot of plants that were untreated.

Root Rot (Pythium sp.) = assay: Evaluation of Root Rot on peppers (field trial); type: in vivo
Experimental: In the instant example, symptoms of fungal infection with Root Rot (Pythium sp.) on peppers were evaluated. Plants were either treated with a composition comprising 1-MCP or left untreated.
Pepper seedlings with approximately 3 leaves (approximately 4-5 inches tall) in seedling trays were either i) sprayed with 1-MCP (1-10 g ai/ha) or ii) left untreated. Contacting the plants was achieved using a watering can containing a 50 ppm solution of 1-MCP. Three days later, the seedlings were transplanted into the open field near Clinton, N.C. following normal commercial pepper production practices.
Throughout the growing season, normal field production practices were performed, including fertilization, watering, and pest control (e.g., insecticide, fungicide, and herbicide) applications uniformly to the entire trial area.

[6] = tested on: Downy Mildew (Pseudoperonospora cubensis); assay: Evaluation of Downy Mildew on cucumbers (field trial); type: in vivo
Experimental: In the instant example, symptoms of fungal infection with Downy Mildew (Pseudoperonospora cubensis) on cucumbers were evaluated. Plants were either treated with a composition comprising 1-MCP or left untreated.
as §3, with “Cucumber seedlings” for “Tomato Seedlings (var Charger)”, “3” for “4”, “3” for “4-5”, “(40” for “(1-40”, “Futian Village, Wangsi Township, Dayi County, Sichuan, China,” for “Thonotosassa, Fla.”, “commercial” for “commercial tomato”
as §4, with “Approximately 5-6” for “Beginning approximately 3 weeks later, and continuing approximately 7 weeks later and approximately 11”

Structure (SMILES): CC1=CC1 [1-MCP, 1-methylcyclopropene]
- Percentage of BCTV Infested Plants [1]: 4%
- Mean (plants showing symptoms of infection by TYLCV out of 54 plants per plot) [2]: 11%
- Percentage of Infected Plants (Target Spot) [3]: 19%
- Bacterial Spot disease severity assessment [4]: 4%
- reduction of average percent disease severity ratings for Early Blight versus untreated ([5]; across the three rating dates (approximately 3, 7, 11 weeks)): approximately 30%
- average percent disease severity rating for Early Blight ([5]; tomato var Charger, seedlings sprayed with 1-10 g ai/ha two days before transplant, average across approximately 3, 7 and 11 weeks later, p = 0.09): 27.6%
- mortality and stunting of plants caused by Pythium (Root Rot (Pythium sp.); pepper seedlings treated with 1-10 g ai/ha (watering can, 50 ppm solution) three days before transplant, versus untreated): clearly reduced the mortality and stunting of plants
- plant appearance and Pythium pressure compared to untreated controls (Root Rot (Pythium sp.); pepper, two weeks after transplantation): slightly larger, darker green, and not as affected by Pythium pressure
- percent disease (Downy Mildew) severity rating ([6]; cucumber seedlings sprayed with 40 g ai/ha two days before transplant, rated approximately 5-6 weeks later, p = 0.08): 18%
- reduction of percent disease (Downy Mildew) severity ratings versus untreated ([6]; cucumber, approximately 5-6 weeks later): approximately 47%
